Measurements: US20190022225A1, “PROTOCOL FOR INCREASING LIFE EXPECTANCY IN A TEST SUBJECT” (Mayo Foundation for Medical Education and Research, priority 2015, published 2019)

Legend:
[1] = test system: non-senescent foreskin fibroblasts (HCA2), lung fibroblasts (IMR90), mouse embryonic fibroblasts (MEF); assay: Nutlin-3a toxicity, cell counts of non-senescent fibroblasts; type: cell-based, human; mouse; settings: 0, 2.5, 10 μM, 9 days
Description: Non-senescent foreskin fibroblasts (HCA2), lung fibroblasts (IMR90), and mouse embryonic fibroblasts (MEF) were treated with varying concentrations (0, 2.5 μM, and 10 μM) of Nutlin-3a for a period of 9 days to assess Nutlin-3a toxicity. Cell counts were taken at the start (NS start) and end of Nutlin-3a treatment. The difference between counts of cells not treated with Nutlin-3a on day 9 (NS 0) and cell counts determined at day zero (NS start) reflects the cell growth over the indicated time period. […] Decrease in apparent survival between NS 0 and NS 2.5 and between NS 0 and NS 10 reflects a decrease in cell growth. Without wishing to be bound by theory, Nutlin-3a may stabilize p53, leading to cell cycle growth arrest.

[2] = test system: doxorubicin-induced senescent cells in p16-3MR mice; assay: Nutlin-3a treatment of p16-3MR transgenic mice with doxorubicin-induced senescence; type: in vivo, mouse; settings: for cells with DNA damage (γH2AX positive) in lung sections: day 35, versus doxorubicin alone
Description: The capability of Nutlin-3a to remove senescent cells in vivo was determined in transgenic p16-3MR mice (see, e.g., International Application Publication No. WO2013/090645). The transgenic mouse comprises a p16^Ink4a promoter operatively linked to a trimodal fusion protein for detecting senescent cells and for selective clearance of senescent cells in these transgenic mice, which is illustrated in FIG. 7. The promoter, p16^Ink4a, which is transcriptionally active in senescent cells but not in non-senescent cells (see, e.g., Wang et al., J. Biol. Chem. 276:48655-61 (2001); Baker et al., Nature 479:232-36 (2011)) was engineered into a nucleic acid construct. 3MR (tri-modality reporter) is a fusion protein containing functional domains of a synthetic Renilla luciferase (LUC), monomeric red fluorescence protein (mRFP), and truncated herpes simplex virus (HSV)-1 thymidine kinase (tTK), which allows killing by ganciclovir (GCV) (see, e.g., Ray et al., Cancer Res. 64:1323-30 (2004))). The 3MR cDNA was inserted in frame with p16 in exon 2, creating a fusion protein containing the first 62 amino acids of p16, but not a full-length wild-type p16 protein. […] The p16^Ink4a gene promoter (approximately […]) was introduced upstream of a nucleotide sequence encoding a trimodal reporter fusion protein. Alternatively, a truncated p16^Ink4a promoter may be used (see, e.g., Baker et al., Nature, supra; International Application Publication No. WO2012/177927; Wang et al., supra).). Thus, the expression of 3MR is driven by the p16^Ink4a promoter in senescent cells only. The detectable markers, LUC and mRFP permitted detection of senescent cells by bioluminescence and fluorescence, respectively. The expression of tTK permitted selective killing of senescent cells by exposure to the pro-drug ganciclovir (GCV), which is converted to a cytotoxic moiety by tTK. Transgenic founder animals, which have a C57B16 background, were established and bred using known procedures for introducing transgenes into animals (see, e.g., Baker et al., Nature 479:232-36 (2011)). Female C57/BL6 p16-3MR mice were randomized into doxorubicin+Nutlin-3a treated or doxorubicin only treated groups (see FIG. 6). Senescence was induced by intraperitoneal administration of doxorubicin at 10 mg/kg to the mice ten days prior to administration of Nutlin-3a (Day −10). Nutlin-3a (25 mg/kg) was administered intraperitoneally daily from day 10 to day 24 post-doxorubicin treatment (Group=9 mice). Control mice (doxorubicin treated) were injected with equal volumes of PBS (Group=3 mice). Luminescence imaging (Xenogen Imaging system) was performed at Day 0 (i.e., 10 days post-doxorubicin treatment) as a baseline for each mouse (100% intensity).
Luminescence imaging of the mice was performed on day 7, 14, 21, 28, and 35 following the initiation of Nutlin-3a treatment. Reduction of luminescence (L) was calculated as: L=(Imaging post-Nutlin-3a treatment)/(Baseline Imaging) %. If L is greater than or equal to 100%, the number of senescent cells was not reduced. If L is less than 100%, then the number of senescent cells was reduced. Every mouse was calculated independently, and background was subtracted from each sample.
Experiments were performed to determine the effect of Nutlin-3a treatment on expression of genes associated with senescence. Groups of female C57/BL6 p16-3MR were treated as described above. Three weeks after the end of Nutlin-3a treatment (day 35), the doxorubicin treated mice (control) (N=3) and doxorubicin+Nutlin-3a-treated mice (N=6) were sacrificed. Skin and fat biopsies were collected for RNA extraction; fat biopsies were collected for detection of senescence-associated β-galactosidase; and lungs were flash frozen in cryoprotectant OCT media for cryostat sectioning. […]

[3] = test system: C57BL/6J mice; assay: Rotarod motor coordination in 23 month old C57BL/6J mice; type: in vivo, mouse
Description: A group of 34 C57BL/6J mice were tested for motor coordination in a rotarod at 23 months of age. Mice were tested for 4 consecutive days. Each session consisted of 4 runs in which the speed of the rotating rod increased from 4 to 40 rpm over 5 minutes. Mice were allowed to run until they fell. The latency to fall was recorded for each run, and averaged to obtain a single value for each session. Half of the mice were then treated with 50 mg/kg nutlin-3a for 14 consecutive days, via IP injection, while the rest of them were sham injected. 3 weeks after the last day of treatment, motor coordination was assessed following the described procedure.
Values higher than 1 correspond to an increase in motor coordination after treatment. The average of 4 runs for each animal and the average (±SEM) for each group are shown.
The average of 4 runs is shown for each day (±SEM).

[4] = test system: paclitaxel treated p16-3MR mice; assay: Chemotherapy related side effects: voluntary exercise (wheel counts) after paclitaxel in p16-3MR mice; type: in vivo, mouse; settings: ABT-263 100 mg/kg ip daily 7 days; ganciclovir 25 mg/kg ip daily 3 days
Description: ABT-263 (100 mg/kg) was administered intraperitoneally daily for seven days after paclitaxel administration. Two days after the last dose of ABT-263, all groups of animals were housed in metabolic cages (promethion, sable systems international, Las Vegas, Nev.) to monitor voluntary exercise as determined by wheel counts. Data were collected and analyzed two days later. Clearance of senescent cells by ABT-263 and ganciclovir restored approximately 70% of wheel count reduction caused by chemotherapy treatment.

[5] = test system: p16-3MR mice fed a high fat diet; assay: Glucose tolerance, insulin tolerance and body parameters in high fat fed p16-3MR mice; type: in vivo, mouse
Description: Groups of p16-3MR mice (n=9) were fed a high fat diet for four months mice or a regular chow diet. Animals were then treated with ganciclovir (3 rounds of 25 mg/kg ganciclovir administered daily for five consecutive days) or vehicle. A glucose bolus was given at time zero, and blood glucose was monitored at 20, 30, 60, and 120 minutes after delivering glucose to determine glucose disposal (see FIG. 69A). […] Insulin sensitivity was also determined (Insulin Tolerance Testing (ITT)). […] Changes in weight, body composition, and food intake were also monitored.

Row | SMILES | toxicity to non-senescent fibroblasts (percent growth) [1] | luminescence associated with doxorubicin-induced senescence ([2]; 25 mg/kg intraperitoneally daily, day 10 to 24 post-doxorubicin) | luminescence, statistical significance at time points ([2]; day 14, day 28 and day 35 after start of treatment) | mRNA of SASP factors (mmp-3, IL-6) and senescence markers (p21, p16, p53) in skin and fat ([2]; day 35, relative to actin mRNA) | cells with DNA damage (γH2AX positive) in lung sections [2] | cells with DNA damage (γH2AX positive) in lung sections ([2]; listed as nutlin-3A) | senescence-associated β-gal intensity in fat biopsies ([2]; three weeks after treatment, versus doxorubicin alone) | rotarod performance (latency to fall) ([3]; 50 mg/kg IP 14 days, after three days of training, p<0.05) | ratio of latency to fall, fourth session after treatment / fourth baseline session ([3]; p<0.01) | rotarod performance over the training period ([3]; p<0.01, 2-way ANOVA) | restoration of wheel count reduction caused by chemotherapy treatment [4] | insulin tolerance testing: decrease in blood glucose ([5]; 0, 14, 30, 60 and 120 minutes) | glucose tolerance test AUC versus vehicle ([5]; 3 rounds of 25 mg/kg daily for five days) | Hemoglobin A1c ([5]; high fat diet) | body weight, body composition (percent of fat), food intake ([5]; mouse, in vivo)
1 | COc1ccc(C2=N[C@@H](c3ccc(Cl)cc3)[C@@H](c3ccc(Cl)cc3)N2C(=O)N2CCNC(=O)C2)c(OC(C)C)c1 [Nutlin-3a] | reduces proliferation but is non-toxic | reduced luminescence | statistically significant decrease | reduced expression | reduced the number of cells with doxorubicin-induced DNA damage | reduced the number of cells with DNA damage | reduced senescence-associated (SA) β-galactosidase (β-gal) intensity | increased rotarod performance | higher average ratio | better performance |  |  |  |  | 
2 | Nc1nc(O)c2ncn(COC(CO)CO)c2n1 [ganciclovir] |  |  |  |  |  |  |  |  |  |  | approximately 70% | greater decrease in blood glucose | significantly lower | lower | did not alter
